Counter-ions that a name gives are not always drawn. Like-named read-outs stand apart in the source and are kept apart here.

The conditions of data set [1]: conversion of the g/L value.
For data set [2] the following is noted: cited from earlier work.

Take `NNc1nncc2ccccc12` [Hydralazine HCl]: the results for the solubility in water in data set [1] and in data set [2] were approximately 0.8% and “approximately 8 g/L”, respectively.

Source of the values: patent US10434138B2, “Formulations” (Sublimity Therapeutics Limited, priority 2013, dated 2019).
